One assay addresses EGFRWT (Homo sapiens, UniProt P00533). Briefly: In vitro enzymatic activity assay (Z'-LYTE), wild type EGFR. Particulars: Z'-LYTE FRET peptide assay; read-out: EGFRWT kinase activity (IC50). Type of assay: biochemical. From the text: (§1) In vitro enzymatic activity assay: using Z′-LYTE™ technology (detect fluorescence, coupled-enzyme format, based on the differential sensitivity of phosphorylated and non-phosphorylated peptides to proteolytic cleavage), based on FRET, using Z′ LYTE™ FRET peptide substrate, detect the activity of compounds against enzymatic. […] After one hour, site specific protease which can recognize and cleaves non-phosphorylated FRET-peptide. After another hour, using an excitation wavelength of 400 nm excites, then detect the […] at 445 nm and 520 nm.

The next assay addresses T1, EGFR T790M kinase (Homo sapiens, UniProt P00533, T790M).
T1 construct: purchased invitrogen PV4803
Nature of the assay: In vitro enzymatic activity assay (Z'-LYTE), EGFR T790M. Type of assay: biochemical. Particulars: Z'-LYTE FRET peptide assay; read-out: EGFRT790M kinase activity (IC50).
Source text: as §1

In a further assay the target is EGFRL858R (Homo sapiens, UniProt P00533, L858R). Briefly: In vitro enzymatic activity assay (Z'-LYTE), EGFR L858R. It counts as biochemical. The settings on record: Z'-LYTE FRET peptide assay; read-out: EGFRL858R kinase activity (IC50).
Source text: as §1

A further assay deals with EGFRL861Q (Homo sapiens, UniProt P00533, L861Q). Briefly: In vitro enzymatic activity assay (Z'-LYTE), EGFR L861Q. The settings on record: Z'-LYTE FRET peptide assay; read-out: EGFRL861Q kinase activity (IC50). Type of assay: biochemical.
Source text: as §1

In another assay the target is EGFRL858R + T790M (Homo sapiens, UniProt P00533, L858R/T790M). Nature of the assay: In vitro enzymatic activity assay (Z'-LYTE), EGFR L858R + T790M. The settings on record: Z'-LYTE FRET peptide assay; read-out: EGFRL858R + T790M kinase activity (IC50). It counts as biochemical.
Source text: as §1

Assay [1] deals with H1975 (lung cancer cells, EGFR L858R&T790M). Nature of the assay: Cell proliferation by MTT, H1975. Type of assay: cell-based. Particulars: Homo sapiens, NCI-H1975, read-out: H1975 50% inhibitory concentration (IC50), 72 h.

Where only a bound is given, the exact number is not on record here.

EGFRL858R, sequence (P00533 25-1210 L858R): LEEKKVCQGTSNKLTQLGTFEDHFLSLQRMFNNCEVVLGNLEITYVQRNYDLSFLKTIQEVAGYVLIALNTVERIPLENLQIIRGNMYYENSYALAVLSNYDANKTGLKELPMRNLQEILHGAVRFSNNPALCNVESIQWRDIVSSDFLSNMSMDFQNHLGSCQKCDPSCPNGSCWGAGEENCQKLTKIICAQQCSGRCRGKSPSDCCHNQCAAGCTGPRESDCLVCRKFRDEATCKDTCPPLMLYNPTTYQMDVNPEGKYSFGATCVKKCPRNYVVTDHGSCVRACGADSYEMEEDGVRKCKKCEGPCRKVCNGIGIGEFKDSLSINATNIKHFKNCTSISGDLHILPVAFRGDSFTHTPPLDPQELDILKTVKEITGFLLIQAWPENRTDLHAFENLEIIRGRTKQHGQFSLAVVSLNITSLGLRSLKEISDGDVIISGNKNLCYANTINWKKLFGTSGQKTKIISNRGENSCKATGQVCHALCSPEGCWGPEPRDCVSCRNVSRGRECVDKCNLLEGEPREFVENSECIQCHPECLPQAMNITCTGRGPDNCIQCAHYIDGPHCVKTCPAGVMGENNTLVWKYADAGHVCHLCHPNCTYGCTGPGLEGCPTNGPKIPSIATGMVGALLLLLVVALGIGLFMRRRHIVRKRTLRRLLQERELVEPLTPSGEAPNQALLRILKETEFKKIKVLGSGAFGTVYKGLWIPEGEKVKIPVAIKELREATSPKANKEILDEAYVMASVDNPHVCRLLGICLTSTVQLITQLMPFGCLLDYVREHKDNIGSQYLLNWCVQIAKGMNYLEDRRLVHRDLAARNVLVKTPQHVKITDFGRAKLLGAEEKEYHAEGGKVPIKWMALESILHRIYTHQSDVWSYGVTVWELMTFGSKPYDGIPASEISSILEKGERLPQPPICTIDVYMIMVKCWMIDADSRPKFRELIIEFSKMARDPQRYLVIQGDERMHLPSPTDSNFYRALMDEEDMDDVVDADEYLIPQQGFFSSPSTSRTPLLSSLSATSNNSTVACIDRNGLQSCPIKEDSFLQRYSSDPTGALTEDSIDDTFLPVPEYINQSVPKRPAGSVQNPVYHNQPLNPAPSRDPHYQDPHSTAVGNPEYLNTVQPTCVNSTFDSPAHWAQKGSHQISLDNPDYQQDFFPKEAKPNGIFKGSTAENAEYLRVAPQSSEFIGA
T1 sequence (P00533 25-1210 T790M): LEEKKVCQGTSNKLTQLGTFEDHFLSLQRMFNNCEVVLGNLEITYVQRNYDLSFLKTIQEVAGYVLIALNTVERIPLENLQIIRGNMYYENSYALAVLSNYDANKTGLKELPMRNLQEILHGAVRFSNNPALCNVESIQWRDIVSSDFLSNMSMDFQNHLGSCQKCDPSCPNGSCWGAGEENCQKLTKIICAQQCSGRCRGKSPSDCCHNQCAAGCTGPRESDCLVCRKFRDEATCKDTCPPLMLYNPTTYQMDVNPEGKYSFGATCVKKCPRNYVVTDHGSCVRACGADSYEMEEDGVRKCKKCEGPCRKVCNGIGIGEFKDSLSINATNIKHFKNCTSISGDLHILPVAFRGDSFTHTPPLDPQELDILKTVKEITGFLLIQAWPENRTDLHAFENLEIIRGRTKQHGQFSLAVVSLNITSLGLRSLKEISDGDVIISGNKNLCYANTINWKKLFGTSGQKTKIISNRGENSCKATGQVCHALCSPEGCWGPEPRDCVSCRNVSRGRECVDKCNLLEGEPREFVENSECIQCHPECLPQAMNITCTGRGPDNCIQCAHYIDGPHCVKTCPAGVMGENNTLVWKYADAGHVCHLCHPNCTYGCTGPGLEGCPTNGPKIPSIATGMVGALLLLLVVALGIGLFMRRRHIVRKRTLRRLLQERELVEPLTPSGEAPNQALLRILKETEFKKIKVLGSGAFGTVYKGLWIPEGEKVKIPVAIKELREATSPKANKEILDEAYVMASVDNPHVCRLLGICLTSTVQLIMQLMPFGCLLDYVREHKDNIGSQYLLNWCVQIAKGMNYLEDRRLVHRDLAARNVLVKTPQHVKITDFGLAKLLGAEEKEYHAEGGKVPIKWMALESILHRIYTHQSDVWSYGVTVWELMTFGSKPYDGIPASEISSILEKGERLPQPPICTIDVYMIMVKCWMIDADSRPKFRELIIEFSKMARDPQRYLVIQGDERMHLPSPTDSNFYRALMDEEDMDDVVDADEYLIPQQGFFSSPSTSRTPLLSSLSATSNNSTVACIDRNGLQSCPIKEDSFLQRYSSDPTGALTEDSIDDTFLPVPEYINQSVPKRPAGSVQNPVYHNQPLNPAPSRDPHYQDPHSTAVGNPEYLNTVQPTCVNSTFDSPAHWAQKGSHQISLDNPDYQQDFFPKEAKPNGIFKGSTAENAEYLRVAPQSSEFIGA
EGFRL858R + T790M, sequence (P00533 25-1210 T790M/L858R): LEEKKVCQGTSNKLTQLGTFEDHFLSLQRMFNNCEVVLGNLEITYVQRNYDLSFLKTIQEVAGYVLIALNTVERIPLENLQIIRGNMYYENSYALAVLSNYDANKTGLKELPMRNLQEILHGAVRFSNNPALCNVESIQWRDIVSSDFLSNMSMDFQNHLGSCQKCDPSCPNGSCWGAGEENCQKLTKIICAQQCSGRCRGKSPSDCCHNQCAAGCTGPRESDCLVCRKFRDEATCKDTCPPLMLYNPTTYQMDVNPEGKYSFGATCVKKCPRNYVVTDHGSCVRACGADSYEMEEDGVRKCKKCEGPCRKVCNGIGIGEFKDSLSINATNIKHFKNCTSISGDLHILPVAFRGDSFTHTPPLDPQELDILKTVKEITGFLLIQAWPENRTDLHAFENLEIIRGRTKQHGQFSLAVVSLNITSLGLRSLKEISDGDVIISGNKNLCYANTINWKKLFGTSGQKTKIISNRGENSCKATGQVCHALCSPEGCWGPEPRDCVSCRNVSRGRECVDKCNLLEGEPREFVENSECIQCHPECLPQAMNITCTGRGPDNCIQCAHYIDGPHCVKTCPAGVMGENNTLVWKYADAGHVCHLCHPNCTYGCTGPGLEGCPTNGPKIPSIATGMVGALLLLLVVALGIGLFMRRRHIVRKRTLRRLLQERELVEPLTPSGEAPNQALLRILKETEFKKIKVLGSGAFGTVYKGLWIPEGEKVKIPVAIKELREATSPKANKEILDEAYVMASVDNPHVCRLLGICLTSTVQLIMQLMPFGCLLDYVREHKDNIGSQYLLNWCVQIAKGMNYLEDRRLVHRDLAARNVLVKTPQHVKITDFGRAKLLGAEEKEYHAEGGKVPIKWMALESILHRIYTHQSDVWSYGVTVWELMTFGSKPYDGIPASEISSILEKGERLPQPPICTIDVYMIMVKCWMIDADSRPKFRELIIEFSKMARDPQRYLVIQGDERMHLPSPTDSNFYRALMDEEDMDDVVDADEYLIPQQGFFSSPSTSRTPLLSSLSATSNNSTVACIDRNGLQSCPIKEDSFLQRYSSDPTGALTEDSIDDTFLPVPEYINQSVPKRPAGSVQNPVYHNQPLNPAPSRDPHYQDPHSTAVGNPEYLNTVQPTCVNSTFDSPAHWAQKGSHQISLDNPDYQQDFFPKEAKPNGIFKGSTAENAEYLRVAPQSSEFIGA
EGFRL861Q, sequence (P00533 25-1210 L861Q): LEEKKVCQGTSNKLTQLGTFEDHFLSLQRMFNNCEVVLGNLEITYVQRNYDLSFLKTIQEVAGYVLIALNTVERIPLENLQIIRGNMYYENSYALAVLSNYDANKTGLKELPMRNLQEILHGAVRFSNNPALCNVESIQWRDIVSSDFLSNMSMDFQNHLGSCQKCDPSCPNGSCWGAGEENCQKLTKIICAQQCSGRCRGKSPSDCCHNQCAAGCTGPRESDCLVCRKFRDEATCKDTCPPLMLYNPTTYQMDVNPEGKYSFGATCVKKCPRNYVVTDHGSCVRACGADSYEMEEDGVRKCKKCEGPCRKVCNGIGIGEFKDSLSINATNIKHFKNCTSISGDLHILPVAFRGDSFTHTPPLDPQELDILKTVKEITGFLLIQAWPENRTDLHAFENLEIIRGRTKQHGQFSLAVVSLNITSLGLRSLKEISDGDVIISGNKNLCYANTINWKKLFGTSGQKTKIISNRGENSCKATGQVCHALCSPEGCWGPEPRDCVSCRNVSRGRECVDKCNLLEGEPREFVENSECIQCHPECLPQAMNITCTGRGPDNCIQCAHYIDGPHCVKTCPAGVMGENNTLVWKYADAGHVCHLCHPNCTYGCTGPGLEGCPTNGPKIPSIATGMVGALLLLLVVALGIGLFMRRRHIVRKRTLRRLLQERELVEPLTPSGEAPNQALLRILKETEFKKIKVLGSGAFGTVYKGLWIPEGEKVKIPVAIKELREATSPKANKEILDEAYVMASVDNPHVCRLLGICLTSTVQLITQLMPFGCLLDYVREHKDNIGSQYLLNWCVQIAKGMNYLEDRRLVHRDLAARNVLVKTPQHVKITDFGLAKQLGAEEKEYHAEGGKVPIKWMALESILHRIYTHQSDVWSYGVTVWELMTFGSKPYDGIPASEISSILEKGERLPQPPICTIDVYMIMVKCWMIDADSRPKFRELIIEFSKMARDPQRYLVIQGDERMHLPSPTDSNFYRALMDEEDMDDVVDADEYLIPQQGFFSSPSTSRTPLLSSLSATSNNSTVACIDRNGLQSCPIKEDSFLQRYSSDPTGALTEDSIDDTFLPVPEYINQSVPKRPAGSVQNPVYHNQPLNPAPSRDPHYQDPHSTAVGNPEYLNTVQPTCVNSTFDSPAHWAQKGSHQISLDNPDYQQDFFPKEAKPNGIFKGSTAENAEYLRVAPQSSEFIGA

`C=CC(=O)Nc1cccc(N2C(=O)N(C)Cc3cnc(Nc4ccc(N5CC[C@@H](N(C)C)C5)cc4OC)nc32)c1` [C-EGF15, (R)—N-(3-(7-(4-(3-(dimethylamino)pyrrolidin-1-yl)-2-methoxyphenylamino)-3-methyl-2-oxo-3,4-dihydropyrimido[4,5-d]pyrimidin-1(2H)-yl)phenyl)acrylamide]: the IC50 at EGFRWT is 10 to 100 nM; on EGFR T790M kinase, 10 to 100 nM; at EGFRL858R, at most 10 nM; on EGFRL861Q, at most 10 nM; at EGFRL858R + T790M, at most 10 nM; in assay [1], 449 nM.
As to `C=CC(=O)Nc1cccc(N2C(=O)N(C)Cc3cnc(Nc4ccc(N5CC[C@H](N(C)C)C5)cc4OC)nc32)c1` [C-EGF16, (S)—N-(3-(7-(4-(3-(dimethylamino)pyrrolidin-1-yl)-2-methoxyphenylamino)-3-methyl-2-oxo-3,4-dihydropyrimido[4,5-d]pyrimidin-1(2H)-yl)phenyl)acrylamide], the IC50 at EGFRWT was at most 10 nM; at EGFR T790M kinase, 10 to 100 nM; at EGFRL858R, at most 10 nM; on EGFRL861Q, at most 10 nM; at EGFRL858R + T790M, at most 10 nM; in assay [1] it was 380 nM.
For `C=CC(=O)Nc1cccc(N2C(=O)N(C)Cc3cnc(Nc4ccc(N5CCN(C(C)=O)CC5)cc4OC)nc32)c1` [C-EGF20, N-(3-(7-(4-(4-acetylpiperazin-1-yl)-2-methoxyphenylamino)-3-methyl-2-oxo-3,4-dihydropyrimido[4,5-d]pyrimidin-1(2H)-yl)phenyl)acrylamide], the IC50 on EGFRWT was at most 10 nM; on EGFR T790M kinase, at most 10 nM; at EGFRL858R, at most 10 nM; on EGFRL861Q it was at most 10 nM; at EGFRL858R + T790M, at most 10 nM; in assay [1], 143 nM.
For the molecule `C=CC(=O)Nc1cccc(N2C(=O)N(c3ccccc3)Cc3cnc(Nc4ccc(N5CCN(C)CC5)cc4OC)nc32)c1` [C-EGF27, N-(3-(7-(2-methoxy-4-(4-methylpiperazin-1-yl)phenylamino)-2-oxo-3-phenyl-3,4-dihydropyrimido[4,5-d]pyrimidin-1(2H)-yl)phenyl)acrylamide], the IC50 at EGFRWT, at EGFR T790M kinase, at EGFRL858R, on EGFRL861Q and at EGFRL858R + T790M was at most 10 nM throughout.
For the molecule `C=CC(=O)Nc1cccc(N2C(=O)N(Cc3ccccc3)Cc3cnc(Nc4ccc(N5CCN(C)CC5)cc4OC)nc32)c1` [C-EGF29, N-(3-(3-benzyl-7-(2-methoxy-4-(4-methylpiperazin-1-yl)phenylamino)-2-oxo-3,4-dihydropyrimido[4,5-d]pyrimidin-1(2H)-yl)phenyl)acrylamide], the IC50 on EGFRWT, at EGFR T790M kinase, on EGFRL858R, at EGFRL861Q and on EGFRL858R + T790M was at most 10 nM each time.
On to `C=CC(=O)Nc1cccc(N2C(=O)N(c3ccc(-c4ccccc4)cc3)Cc3cnc(Nc4ccc(N5CCN(C)CC5)cc4OC)nc32)c1` [C-EGF30, N-(3-(3-(biphenyl-4-yl)-7-(2-methoxy-4-(4-methylpiperazin-1-yl)phenylamino)-2-oxo-3,4-dihydropyrimido[4,5-d]pyrimidin-1(2H)-yl)phenyl)acrylamide], for which the IC50 at EGFRWT, at EGFR T790M kinase, on EGFRL858R, on EGFRL861Q and on EGFRL858R + T790M was at most 10 nM each time.
With `C=CC(=O)Nc1cccc(N2C(=O)N(c3ccc(Oc4ccccc4)cc3)Cc3cnc(Nc4ccc(N5CCN(C)CC5)cc4OC)nc32)c1` [C-EGF31, N-(3-(7-(2-methoxy-4-(4-methylpiperazin-1-yl)phenylamino)-2-oxo-3-(4-phenoxyphenyl)-3,4-dihydropyrimido[4,5-d]pyrimidin-1(2H)-yl)phenyl)acrylamide], the IC50 at EGFRWT, on EGFR T790M kinase, on EGFRL858R, at EGFRL861Q and on EGFRL858R + T790M was at most 10 nM each time.
For `C=CC(=O)Nc1cccc(N2C(=O)N(c3ccc(OCc4ccccc4)cc3)Cc3cnc(Nc4ccc(N5CCN(C)CC5)cc4OC)nc32)c1` [C-EGF32, N-(3-(3-(4-(benzyloxy)phenyl)-7-(2-methoxy-4-(4-methylpiperazin-1-yl)phenylamino)-2-oxo-3,4-dihydropyrimido[4,5-d]pyrimidin-1(2H)-yl)phenyl)acrylamide], the IC50 on EGFRWT, at EGFR T790M kinase, on EGFRL858R, at EGFRL861Q and on EGFRL858R + T790M was at most 10 nM each time.
With `C=CC(=O)Nc1cccc(N2C(=O)N(c3cccc(Cl)c3)Cc3cnc(Nc4ccc(N5CCN(C)CC5)cc4OC)nc32)c1` [C-EGF35, N-(3-(3-(3-chlorophenyl)-7-(2-methoxy-4-(4-methylpiperazin-1-yl)phenylamino)-2-oxo-3,4-dihydropyrimido[4,5-d]pyrimidin-1(2H)-yl)phenyl)acrylamide], the IC50 on EGFRWT, at EGFR T790M kinase, at EGFRL858R, on EGFRL861Q and at EGFRL858R + T790M was at most 10 nM throughout.
Regarding `C=CC(=O)Nc1cccc(N2C(=O)N(c3cccc(C#N)c3)Cc3cnc(Nc4ccc(N5CCN(C)CC5)cc4OC)nc32)c1` [C-EGF36, N-(3-(3-(3-cyanophenyl)-7-(2-methoxy-4-(4-methylpiperazin-1-yl)phenylamino)-2-oxo-3,4-dihydropyrimido[4,5-d]pyrimidin-1(2H)-yl)phenyl)acrylamide], the IC50 at EGFRWT, on EGFR T790M kinase, on EGFRL858R, on EGFRL861Q and on EGFRL858R + T790M was at most 10 nM each time.
In the case of `C=CC(=O)Nc1cccc(N2C(=O)N(c3cccc([N+](=O)[O-])c3)Cc3cnc(Nc4ccc(N5CCN(C)CC5)cc4OC)nc32)c1` [C-EGF37, N-(3-(7-(2-methoxy-4-(4-methylpiperazin-1-yl)phenylamino)-3-(3-nitrophenyl)-2-oxo-3,4-dihydropyrimido[4,5-d]pyrimidin-1(2H)-yl)phenyl)acrylamide], the IC50 is at most 10 nM on EGFRWT; 10 to 100 nM on EGFR T790M kinase; at most 10 nM at EGFRL858R; at most 10 nM at EGFRL861Q; 10 to 100 nM on EGFRL858R + T790M.
For `C=CC(=O)Nc1cccc(N2C(=O)N(c3ccc(F)c(Cl)c3)Cc3cnc(Nc4ccc(N5CCN(C)CC5)cc4OC)nc32)c1` [C-EGF38, N-(3-(3-(3-chloro-4-fluorophenyl)-7-(2-methoxy-4-(4-methylpiperazin-1-yl)phenylamino)-2-oxo-3,4-dihydropyrimido[4,5-d]pyrimidin-1(2H)-yl)phenyl)acrylamide], the IC50 at EGFRWT, on EGFR T790M kinase, at EGFRL858R, on EGFRL861Q and on EGFRL858R + T790M was at most 10 nM throughout.
With `C=CC(=O)Nc1cccc(N2C(=O)N(c3ccccc3C)Cc3cnc(Nc4ccc(N5CCN(C)CC5)cc4OC)nc32)c1` [C-EGF39, N-(3-(7-(2-methoxy-4-(4-methylpiperazin-1-yl)phenylamino)-2-oxo-3-o-tolyl-3,4-dihydropyrimido[4,5-d]pyrimidin-1(2H)-yl)phenyl)acrylamide], the IC50 at EGFRWT, at EGFR T790M kinase, at EGFRL858R, at EGFRL861Q and on EGFRL858R + T790M was at most 10 nM in each case.
Turning to `C=CS(=O)(=O)Nc1cccc(N2C(=O)N(C)Cc3cnc(Nc4ccc(N5CCN(C)CC5)cc4OC)nc32)c1` [C-EGF40, N-(3-(7-(2-methoxy-4-(4-methylpiperazin-1-yl)phenylamino)-3-methyl-2-oxo-3,4-dihydropyrimido[4,5-d]pyrimidin-1(2H)-yl)phenyl)ethenesulfonamide], the IC50 is at most 10 nM at EGFRWT; 10 to 100 nM at EGFR T790M kinase; at most 10 nM at EGFRL858R; at most 10 nM on EGFRL861Q; 10 to 100 nM at EGFRL858R + T790M.
For the molecule `C=CC(=O)Nc1ccc(F)c(N2C(=O)N(Cc3ccccc3)Cc3cnc(Nc4ccc(N5CCN(C)CC5)cc4OC)nc32)c1` [C-EGF41, N-(3-(3-benzyl-7-(2-methoxy-4-(4-methylpiperazin-1-yl)phenylamino)-2-oxo-3,4-dihydropyrimido[4,5-d]pyrimidin-1(2H)-yl)-4-fluorophenyl)acrylamide], the IC50 at EGFRWT, on EGFR T790M kinase, on EGFRL858R, at EGFRL861Q and at EGFRL858R + T790M was at most 10 nM throughout.

These data come from patent US20140296216A1, “PYRIMIDO[4,5-D]PYRIMIDINYL COMPOUNDS, PHARMACEUTICAL COMPOSITIONS AND USES THEREOF” (GUANGZHOU INSTITUTE OF BIOMEDICINE AND HEALTH, CHINESE …, priority 2011, published 2014).
